Experimental data from ChEMBL document CHEMBL4837240 (J Med Chem, 2021).
Activity calls are given as the source filed them. The calls are words filed in the database; no cut-off is given here.

Experiments:
[1] = test system: MDA-MB-436; assay: Antimigratory activity against human MDA-MB-436 cells assessed as suppression of migration measured after 24 hrs by Wound healing assay; format: functional, cell-based
[2] = target: Vascular endothelial growth factor receptor 3 (Mus musculus) (UniProt P35917); assay: In vivo inhibition of VEGFR3 phosphorylation in BALB/c mouse xenografted with MDA-MB-231 cells assessed as decrease in AKT phosphorylation at 25 mg/kg, po by immunohistochemistry analysis; format: functional, organism-based
Vascular endothelial growth factor receptor 3 (Mus musculus), sequence (P35917 whole entry): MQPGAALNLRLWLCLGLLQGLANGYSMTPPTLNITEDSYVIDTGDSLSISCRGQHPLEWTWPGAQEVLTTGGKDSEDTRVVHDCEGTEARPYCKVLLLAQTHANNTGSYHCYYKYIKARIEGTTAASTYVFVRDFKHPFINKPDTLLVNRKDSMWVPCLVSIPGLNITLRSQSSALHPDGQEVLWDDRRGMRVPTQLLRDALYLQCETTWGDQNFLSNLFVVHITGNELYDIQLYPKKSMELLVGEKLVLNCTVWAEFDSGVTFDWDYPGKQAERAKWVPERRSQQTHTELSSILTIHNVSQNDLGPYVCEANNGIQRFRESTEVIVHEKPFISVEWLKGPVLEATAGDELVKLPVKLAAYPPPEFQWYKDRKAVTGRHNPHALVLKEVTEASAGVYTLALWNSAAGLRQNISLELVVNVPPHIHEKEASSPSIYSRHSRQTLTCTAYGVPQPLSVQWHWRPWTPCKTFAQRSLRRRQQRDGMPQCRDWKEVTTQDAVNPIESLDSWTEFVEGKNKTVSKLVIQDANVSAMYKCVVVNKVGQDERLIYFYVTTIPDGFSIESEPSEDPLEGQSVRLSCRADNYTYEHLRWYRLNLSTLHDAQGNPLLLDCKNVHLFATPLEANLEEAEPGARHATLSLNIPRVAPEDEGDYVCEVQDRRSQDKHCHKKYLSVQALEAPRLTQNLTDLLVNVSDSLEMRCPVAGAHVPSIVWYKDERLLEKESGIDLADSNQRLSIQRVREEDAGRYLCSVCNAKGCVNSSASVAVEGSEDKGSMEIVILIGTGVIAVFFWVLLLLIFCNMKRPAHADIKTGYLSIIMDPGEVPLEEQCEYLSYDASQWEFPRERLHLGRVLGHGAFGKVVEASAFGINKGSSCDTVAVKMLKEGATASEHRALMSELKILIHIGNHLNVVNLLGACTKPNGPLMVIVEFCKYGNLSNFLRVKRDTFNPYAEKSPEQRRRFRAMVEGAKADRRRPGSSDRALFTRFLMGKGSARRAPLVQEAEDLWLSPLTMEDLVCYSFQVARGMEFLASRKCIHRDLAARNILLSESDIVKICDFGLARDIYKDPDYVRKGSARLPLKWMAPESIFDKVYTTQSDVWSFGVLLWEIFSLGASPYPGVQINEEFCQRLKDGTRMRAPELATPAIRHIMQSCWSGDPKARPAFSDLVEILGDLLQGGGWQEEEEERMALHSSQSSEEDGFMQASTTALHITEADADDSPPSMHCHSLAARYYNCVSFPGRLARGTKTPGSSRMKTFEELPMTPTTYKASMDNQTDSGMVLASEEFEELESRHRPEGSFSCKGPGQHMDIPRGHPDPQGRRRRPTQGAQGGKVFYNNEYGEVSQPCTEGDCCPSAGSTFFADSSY

[3] = test system: MDA-MB-231; assay: Antimigratory activity against human MDA-MB-231 cells assessed as reduction in cell migration incubated for 12 hrs by transwell assay; format: functional, cell-based
[4] = Toxicity in BALB/c mouse xenografted with MDA-MB-231 cells assessed as LDH level in blood at 300 mg/kg, po; format: organism-based; conditions: in vivo
[5] = Antitumor activity against human MDA-MB-231 cells xenografted in BALB/c mouse assessed as tumor growth inhibition at 50 mg/kg, po relative to control; format: functional; conditions: read-out: TGI
[6] = test system: MDA-MB-436; assay: Inhibition of colony formation in human MDA-MB-436 cells at 2.5 uM incubated for 24 hrs by clonogenic assay; format: functional
[7] = target: Tyrosine-protein kinase BTK (Homo sapiens, UniProt Q06187); assay: Inhibition of human BTK
Tyrosine-protein kinase BTK, sequence (Q06187 whole entry): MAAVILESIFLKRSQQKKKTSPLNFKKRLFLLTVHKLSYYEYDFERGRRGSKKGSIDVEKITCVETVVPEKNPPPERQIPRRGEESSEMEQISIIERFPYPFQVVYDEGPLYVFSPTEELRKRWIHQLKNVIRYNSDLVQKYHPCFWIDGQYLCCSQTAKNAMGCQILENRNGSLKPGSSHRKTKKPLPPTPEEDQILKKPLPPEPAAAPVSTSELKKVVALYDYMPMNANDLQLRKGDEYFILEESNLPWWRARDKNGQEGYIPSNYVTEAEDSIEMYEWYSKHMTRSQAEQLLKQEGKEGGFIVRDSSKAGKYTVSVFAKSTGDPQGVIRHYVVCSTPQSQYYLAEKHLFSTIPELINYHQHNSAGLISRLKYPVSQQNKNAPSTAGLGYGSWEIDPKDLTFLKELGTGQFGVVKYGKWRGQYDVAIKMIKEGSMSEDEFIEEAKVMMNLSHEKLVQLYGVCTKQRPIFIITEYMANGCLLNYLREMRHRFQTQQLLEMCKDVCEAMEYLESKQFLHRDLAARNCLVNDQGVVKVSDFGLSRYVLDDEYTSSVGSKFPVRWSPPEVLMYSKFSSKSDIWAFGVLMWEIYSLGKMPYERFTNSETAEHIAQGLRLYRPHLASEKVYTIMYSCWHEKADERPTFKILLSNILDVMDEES

[8] = target: T1, Vascular endothelial growth factor receptor 3 (Homo sapiens, UniProt P35916); assay: Inhibition of VEGFR3 in human dermal lymphatic endothelial cells assessed as inhibition of ERK1/2 phosphorylation incubated for 24 hrs by Western blot analysis; conditions: HDLEC
T1 sequence (P35916 whole entry): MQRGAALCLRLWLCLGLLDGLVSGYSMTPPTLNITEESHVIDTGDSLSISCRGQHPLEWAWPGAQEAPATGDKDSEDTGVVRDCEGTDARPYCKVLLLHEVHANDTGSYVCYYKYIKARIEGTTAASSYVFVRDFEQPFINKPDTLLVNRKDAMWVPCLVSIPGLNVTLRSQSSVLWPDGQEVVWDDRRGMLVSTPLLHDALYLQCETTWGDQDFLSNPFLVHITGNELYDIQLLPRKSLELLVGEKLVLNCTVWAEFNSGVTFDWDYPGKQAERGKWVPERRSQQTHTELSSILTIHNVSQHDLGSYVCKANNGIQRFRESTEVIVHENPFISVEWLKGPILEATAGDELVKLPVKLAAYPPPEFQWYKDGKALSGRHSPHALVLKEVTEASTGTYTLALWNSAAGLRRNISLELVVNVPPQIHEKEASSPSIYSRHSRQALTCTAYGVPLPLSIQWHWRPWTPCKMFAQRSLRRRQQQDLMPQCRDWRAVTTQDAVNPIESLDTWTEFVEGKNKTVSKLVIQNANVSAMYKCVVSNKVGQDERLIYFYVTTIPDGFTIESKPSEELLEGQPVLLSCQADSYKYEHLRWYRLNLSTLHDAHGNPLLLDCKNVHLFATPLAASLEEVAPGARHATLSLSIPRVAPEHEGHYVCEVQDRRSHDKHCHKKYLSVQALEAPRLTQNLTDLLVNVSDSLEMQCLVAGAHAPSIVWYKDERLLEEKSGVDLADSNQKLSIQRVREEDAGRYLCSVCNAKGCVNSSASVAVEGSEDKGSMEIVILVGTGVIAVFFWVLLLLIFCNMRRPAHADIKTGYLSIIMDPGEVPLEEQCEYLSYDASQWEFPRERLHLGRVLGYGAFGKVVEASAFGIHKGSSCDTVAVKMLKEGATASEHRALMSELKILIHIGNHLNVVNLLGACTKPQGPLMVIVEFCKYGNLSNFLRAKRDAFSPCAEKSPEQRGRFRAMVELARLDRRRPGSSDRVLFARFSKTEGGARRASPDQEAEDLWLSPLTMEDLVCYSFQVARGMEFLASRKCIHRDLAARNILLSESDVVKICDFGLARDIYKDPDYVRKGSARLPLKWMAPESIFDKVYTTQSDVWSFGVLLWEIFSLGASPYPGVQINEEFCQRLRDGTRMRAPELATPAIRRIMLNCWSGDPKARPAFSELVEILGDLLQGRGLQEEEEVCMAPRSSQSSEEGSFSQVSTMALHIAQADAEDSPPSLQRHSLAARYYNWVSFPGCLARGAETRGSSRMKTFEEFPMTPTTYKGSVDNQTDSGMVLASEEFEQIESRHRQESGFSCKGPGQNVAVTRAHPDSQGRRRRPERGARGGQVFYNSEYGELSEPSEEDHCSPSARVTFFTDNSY

[9] = test system: HDLEC; assay: Downregulation of MMP2 protein expression in human dermal lymphatic endothelial cells incubated for 24 hrs by Western blot analysis; format: functional, tissue-based
[10] = test system: Mus musculus; assay: Decrease in MMP-2 level in BALB/c mouse xenografted with MDA-MB-231 cells in tumor tissue at 25 mg/kg, po by immunohistochemistry analysis; format: functional, organism-based
[11] = test system: MDA-MB-231; assay: Downregulation of MMP2 protein expression in human MDA-MB-231 cells up to 10 uM incubated for 24 hrs by Western blot analysis; format: functional, cell-based; conditions: dose microM <=10, time 24.0 hrs
[12] = test system: MDA-MB-436; assay: Anticancer activity against human MDA-MB-436 cells assessed as cell viability incubated for 48 hrs by MTT assay; conditions: MDA-MB-436, 48 h
[13] = target: T1, Vascular endothelial growth factor receptor 3; assay: Inhibition of human FLT4/VEGFR3
[14] = AUC (0 to infinity) in Sprague-Dawley rat at 1 mg/kg, iv by LC-MS analysis; format: ADME, organism-based; set-up: time infinity, route intravenous, dose 1 mg/kg; conditions: in vivo
[15] = Apparent volume of distribution in Sprague-Dawley rat at 1 mg/kg, iv by LC-MS analysis; format: ADME, organism-based; conditions: in vivo, read-out: Vz
[16] = Toxicity in BALB/c mouse xenografted with MDA-MB-231 cells assessed as ALT level in blood at 300 mg/kg, po; format: organism-based; conditions: in vivo
[17] = Toxicity in BALB/c mouse xenografted with MDA-MB-231 cells assessed as change in lung at 300 mg/kg, po by hematoxylin and eosin staining based analysis; format: organism-based; conditions: in vivo
[18] = test system: MDA-MB-231; assay: Antimetastatic activity against human MDA-MB-231 cells injected into vein of BALB/c mouse lung metastatic model assessed as less lung metastatic nodules at 50 mg/kg, po once a day measured on day 21; format: functional, organism-based; conditions: time 21.0 day
[19] = Toxicity in BALB/c mouse xenografted with MDA-MB-231 cells assessed as change in kidney at 300 mg/kg, po by hematoxylin and eosin staining based analysis; format: organism-based; conditions: in vivo
[20] = Toxicity in BALB/c mouse xenografted with MDA-MB-231 cells assessed as change in heart at 300 mg/kg, po by hematoxylin and eosin staining based analysis; format: organism-based; conditions: in vivo
[21] = Toxicity in BALB/c mouse xenografted with MDA-MB-231 cells assessed as uric acid level in blood at 300 mg/kg, po; format: organism-based; conditions: in vivo
[22] = Toxicity in BALB/c mouse xenografted with MDA-MB-231 cells assessed as change in liver at 300 mg/kg, po by hematoxylin and eosin staining based analysis; format: organism-based; conditions: in vivo
[23] = test system: MDA-MB-436; assay: Induction of apoptosis in human MDA-MB-436 cells assessed as accumulation at G1 phase incubated for 48 hrs by flow cytometry; format: functional, cell-based
[24] = target: T1, Vascular endothelial growth factor receptor 3; assay: Inhibition of VEGFR3 phosphorylation in human MDA-MB-436 cells at 2.5 uM incubated for 24 hrs by Western blot analysis; format: cell-based
[25] = Cmax in Sprague-Dawley rat at 10 mg/kg, po by LC-MS analysis; format: ADME, organism-based; set-up: route oral, dose 10 mg/kg; conditions: in vivo
[26] = target: T2, Vascular endothelial growth factor receptor 2 (Homo sapiens, UniProt P35968); assay: Inhibition of human KDR/VEGFR2 assessed as residual kinase activity at 1 uM relative to control
T2 sequence (P35968 whole entry): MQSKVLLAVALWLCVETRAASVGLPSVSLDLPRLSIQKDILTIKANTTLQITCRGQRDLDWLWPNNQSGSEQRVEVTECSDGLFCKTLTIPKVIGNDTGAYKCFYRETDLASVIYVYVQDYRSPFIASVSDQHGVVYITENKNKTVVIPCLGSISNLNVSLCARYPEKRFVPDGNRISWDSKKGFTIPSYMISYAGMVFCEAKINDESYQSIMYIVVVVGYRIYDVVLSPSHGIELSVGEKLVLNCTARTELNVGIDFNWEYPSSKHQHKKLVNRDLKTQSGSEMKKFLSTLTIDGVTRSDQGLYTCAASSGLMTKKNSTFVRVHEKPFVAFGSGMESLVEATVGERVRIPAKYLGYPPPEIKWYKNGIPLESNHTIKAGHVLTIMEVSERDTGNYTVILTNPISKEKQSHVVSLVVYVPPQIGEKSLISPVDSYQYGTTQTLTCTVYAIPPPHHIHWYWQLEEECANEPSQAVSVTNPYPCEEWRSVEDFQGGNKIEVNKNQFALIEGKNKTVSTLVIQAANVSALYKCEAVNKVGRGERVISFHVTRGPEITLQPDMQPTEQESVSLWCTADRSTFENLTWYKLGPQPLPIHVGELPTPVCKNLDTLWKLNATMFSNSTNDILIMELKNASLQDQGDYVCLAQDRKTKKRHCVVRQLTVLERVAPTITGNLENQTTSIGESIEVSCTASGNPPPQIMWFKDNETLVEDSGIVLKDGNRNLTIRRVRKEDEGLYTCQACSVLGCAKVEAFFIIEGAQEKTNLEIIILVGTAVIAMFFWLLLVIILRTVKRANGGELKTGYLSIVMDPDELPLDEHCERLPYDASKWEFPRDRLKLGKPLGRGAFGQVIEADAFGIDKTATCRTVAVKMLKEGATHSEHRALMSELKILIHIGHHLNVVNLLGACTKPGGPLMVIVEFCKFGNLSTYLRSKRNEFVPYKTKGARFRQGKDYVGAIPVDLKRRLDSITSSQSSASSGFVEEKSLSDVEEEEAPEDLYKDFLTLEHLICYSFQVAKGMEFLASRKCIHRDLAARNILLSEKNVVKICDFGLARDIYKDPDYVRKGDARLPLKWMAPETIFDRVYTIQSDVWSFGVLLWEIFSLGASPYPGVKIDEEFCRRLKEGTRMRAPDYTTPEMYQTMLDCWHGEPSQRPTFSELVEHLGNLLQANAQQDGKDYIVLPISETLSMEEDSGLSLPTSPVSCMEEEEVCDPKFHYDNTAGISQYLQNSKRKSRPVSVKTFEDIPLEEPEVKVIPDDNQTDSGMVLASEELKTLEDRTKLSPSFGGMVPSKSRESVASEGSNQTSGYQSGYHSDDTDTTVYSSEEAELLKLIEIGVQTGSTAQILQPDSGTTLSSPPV

[27] = test system: MDA-MB-231; assay: Upregulation of E-cadherin protein expression in human MDA-MB-231 cells up to 10 uM incubated for 24 hrs by Western blot analysis; format: functional, cell-based; conditions: dose microM <=10, time 24.0 hrs
[28] = target: T1, Vascular endothelial growth factor receptor 3; assay: Inhibition of VEGFR3 phosphorylation in human dermal lymphatic endothelial cells incubated for 24 hrs by Western blot analysis; format: tissue-based; conditions: HDLEC
[29] = target: T1, Vascular endothelial growth factor receptor 3; assay: Inhibition of VEGFR3 in human MDA-MB-436 cells assessed as inhibition of AKT phosphorylation at 2.5 uM incubated for 24 hrs by Western blot analysis; format: cell-based
[30] = test system: MDA-MB-436; assay: Induction of apoptosis in human MDA-MB-436 cells assessed as cleaved caspase 3 up to 10 uM incubated for 24 hrs by Western blotting analysis; format: functional, cell-based; conditions: dose microM <=10, time 24.0 hrs
[31] = target: Misshapen-like kinase 1 (Homo sapiens, UniProt Q8N4C8); assay: Inhibition of human MINK
[32] = test system: Mus musculus; assay: Decrease in LYVE-1 level in BALB/c mouse xenografted with MDA-MB-231 cells in tumor tissue at 25 mg/kg, po by immunohistochemistry analysis; format: functional, organism-based
[33] = test system: Mus musculus; assay: Upregulation of E-cadherin protein expression human MDA-MB-231 cells injected into vein of BALB/c mouse lung metastatic model at 50 mg/kg, po once a day measured on day 21 by […]; format: functional, organism-based
[34] = target: T2, Vascular endothelial growth factor receptor 2; assay: Inhibition of human KDR/VEGFR2
[35] = target: Vascular endothelial growth factor receptor 1 (Homo sapiens, UniProt P17948); assay: Inhibition of human FLT1/VEGFR1 assessed as residual kinase activity at 1 uM relative to control
[36] = target: T1, Vascular endothelial growth factor receptor 3; assay: Inhibition of VEGFR3 in human MDA-MB-231 cells assessed as inhibition of STAT5 phosphorylation at 2.5 uM incubated for 24 hrs by Western blot analysis; format: cell-based
[37] = test system: MDA-MB-436; assay: Downregulation of MMP2 protein expression in human MDA-MB-436 cells up to 10 uM incubated for 24 hrs by Western blot analysis; format: functional, cell-based; conditions: dose microM <=10, time 24.0 hrs
[38] = test system: MDA-MB-231; assay: Induction of apoptosis in human MDA-MB-231 cells assessed as apoptotic cells at 2.5 to 5 uM incubated for 48 hrs by flow cytometry (reference value: 7.2%); format: functional; conditions: dose 2.5-5 µM
[39] = Bioavailability in Sprague-Dawley rat at 1 mg/kg, iv by LC-MS analysis; format: ADME, organism-based; conditions: in vivo
[40] = test system: Mus musculus; assay: In vivo inhibition of VEGFR2 phosphorylation in BALB/c mouse xenografted with MDA-MB-231 cells at 25 mg/kg, po by immunohistochemistry analysis; format: functional, organism-based

CN1CCN(c2ccc(-c3cc4c(N5CCN(C(=O)Nc6ccc(Cl)c(C(F)(F)F)c6)CC5)ncnc4s3)cc2)CC1
Activity [1]: Active
Activity [2]: Active
Activity [3]: Active
Activity [4]: Non-Toxic
inhibition in vivo at 50 mg/kg [5]: 61.9%
inhibition at 2.5 µM [6]: 100%
IC50 [7]: 718 nM
inhibition [8]: Dose-Dependent Effect
Activity [9]: Active
Activity [10]: Active
Activity [11]: Active
IC50 [12]: 3500 nM
IC50 [13]: 110 nM
AUC(0-inf) [14]: 3480 ng·h/mL
Vd [15]: 5.4 L/kg
Activity [16]: Non-Toxic
Activity [17]: Non-Toxic
Activity [18]: Active
Activity [19]: Non-Toxic
Activity [20]: Non-Toxic
Activity [21]: Non-Toxic
Activity [22]: Non-Toxic
Activity [23]: Dose-Dependent Effect
inhibition [24]: Active
Cmax [25]: 420 ng/mL
Activity [26]: 85%
Activity [27]: Active
inhibition [28]: Dose-Dependent Effect
inhibition [29]: Active
Activity [30]: Active
IC50 [31]: 335 nM
Activity [32]: Active
Activity [33]: Active
IC50 [34]: > 10000 nM
Activity [35]: 97%
inhibition [36]: Active
Activity [37]: Active
Activity [38]: 19.7%
bioavailability [39]: 30.9%
Activity [40]: inactive
